*1 amine or outer side, *2 acyl side, *3 side chain or, on linkers, in order; H or OH if unused. Where a SMILES comes first, the peptide text is derived from it. Bridges are numbered along the chain shown (N, C = ends). [ ]: non-standard residue; d: D form. dPhe(4-F) = N[C@H](Cc1ccc(F)cc1)C(=O)O; NH(CH2)4NH = C(CCN[*:2])CN[*:1]; Nle = CCCC[C@H](N)C(=O)O
Columns and labels:
MC1r (HBL) = target: T1, MC1r (HBL) (Homo sapiens, UniProt Q01726); experiment: cAMP agonist functional assay, native MC1r in HBL cells; assay type: cell-based
T1 construct: B16-F10 (mouse) and HBL (human) cell lines that express native MC1 r; endogenous in cells; host or cells: HBL (human) cell line
Experimental: (§1) Accumulation of intracellular cAMP was examined as a measure of the ability of the peptides to elicit a functional response in either HEK-293 cells that express recombinant MC3r or MC4r or B16-F10 (mouse) and HBL (human) cell lines that express native MC1 r. Confluent cells were detached from culture plates by incubation in enzyme-free cell dissociation buffer. Dispersed cells were suspended in Hank's Balanced Salt Solution containing 10 mM HEPES (pH 7.5), 1 mM MgCl2, 1 mM glutamine, 0.5% albumin and 0.3 mM 3-isobutyl-1-methyl-xanthine (IBMX), a phosphodiesterase inhibitor. The cells were dispensed into 96-well plates at a density of 0.5×10^5 cells per well and pre-incubated for 10 minutes. Cells were exposed for 15 minutes at 37° C. to peptides dissolved in DMSO (final DMSO concentration of 1%) at a concentration range of 0.05-5000 nM in a total assay volume of 200 μL. […] Data analysis was performed by nonlinear regression analysis with Graph-Pad Prism® software.

MC4r = target: T2, MC4r (Homo sapiens, UniProt P32245); experiment: cAMP agonist functional assay, recombinant MC4r in HEK-293 cells; assay type: cell-based
T2 construct: expressed in transfected cells; host or cells: HEK-293
Experimental: as §1

MC1r (B16/F10) = target: T3, MC1r (B16/F10) (Mus musculus, UniProt Q01727); experiment: cAMP agonist functional assay, native MC1r in B16-F10 cells; assay type: cell-based
T3 construct: B16-F10 (mouse) and HBL (human) cell lines that express native MC1 r; endogenous in cells; host or cells: B16-F10 (mouse) cell line
Experimental: as §1

MC5r [1] = target: T4, MC5r (Homo sapiens, UniProt P33032); experiment: cAMP agonist functional assay at MC5r (not CEREP); assay type: cell-based
Target sequence in this assay (P33032 whole entry, species assumed): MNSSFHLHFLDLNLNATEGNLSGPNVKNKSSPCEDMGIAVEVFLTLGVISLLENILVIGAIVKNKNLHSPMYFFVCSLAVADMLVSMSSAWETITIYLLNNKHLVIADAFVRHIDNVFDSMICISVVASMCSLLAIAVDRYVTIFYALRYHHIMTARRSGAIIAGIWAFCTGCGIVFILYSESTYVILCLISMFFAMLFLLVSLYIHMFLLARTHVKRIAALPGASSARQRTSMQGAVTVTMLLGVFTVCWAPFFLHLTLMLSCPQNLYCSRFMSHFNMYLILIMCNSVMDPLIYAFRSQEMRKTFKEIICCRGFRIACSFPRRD

[2] = test system: adult subjects with mild, moderate or severe dry eye disease; experiment: Phase 2 placebo-controlled study in dry eye disease, Controlled Adverse Environment; assay type: in vivo, human
Text: Peptide No. 60 was utilized in the ophthalmologic solution drug product of Example 9.3 in a multi-center, double-masked, randomized, placebo-controlled, parallel-arm, Phase 2 study, which enrolled approximately 160 subjects (80 subjects per treatment arm). The objective of this study was to compare the safety and efficacy of Peptide No. 60 to its vehicle from Day 1 (baseline) to Day 85 (Week 12) in adult subjects with mild, moderate or severe dry eye disease in a Controlled Adverse Environment (CAE) setting. Both signs and symptoms were assessed at periodic visits.
During the screening period, two 90-minute exposures to the CAE were conducted to ascertain eligibility to enter the study. Subjects who qualify were randomized to receive study drug or placebo in a double-masked fashion for 12 weeks. Subjects self-administered drops three times per day (TID) and completed daily diary assessments as instructed.
At Visits 3 (Day 15, Week 2), 4 (Day 29, Week 4), 5 (Day 57, Week 8), and 6 (Day 85, Week 12), subjects were exposed to a CAE, with pre-CAE, during CAE (symptoms only) and post-CAE assessments of ocular signs and symptoms.

[3] = Ocular tissue distribution after dosing to the eye, mouse model; assay type: in vivo; conditions: at both 4 and 24 hours after dosing to the eye
Experimental: Peptide No. 60 was evaluated in several stability and pharmacokinetic models.

MC3r = target: T5, MC3r (Homo sapiens, UniProt P41968); experiment: cAMP agonist functional assay, recombinant MC3r in HEK-293 cells; assay type: cell-based
T5 construct: expressed in transfected cells; host or cells: HEK-293
Experimental: as §1

male C57BL/6JRj mice = experiment: Chronic dry-eye disease mouse model (desiccating environment plus scopolamine), corneal fluorescein staining; assay type: in vivo; conditions: for corneal fluorescein staining compared with untreated eyes: Day 24, after 12 days topical treatment
Experimental: To determine efficacy of peptide No. 60 for moderate, chronic dry-eye disease, male C57BL/6JRj mice were exposed to a controlled desiccating environment with transdermal administration of scopolamine (SiccaSystem™) to establish disease prior to any treatment. Corneal fluorescein staining was performed on study Days 10 and 12 (prior to treatment) and Day 24 (after 12 days of topical treatment with test compounds). Animals were randomized into 6 different experimental groups (n=12 for each treatment group, n=7 for untreated eyes) based on the fluorescein score on Day 12. Treatment arms included untreated and vehicle-treated animals and animals receiving Peptide No. 60 (3 different concentrations, 10^−2, 10^−3, and 10^−4 mg/mL) or the reference compound cyclosporin ophthalmic emulsion, sold under the trade name Restasis®.

MC5r [4] = target: T4, MC5r; experiment: CEREP agonist assay, cAMP production by HTRF, MC5 in CHO-K1 cells; assay type: cell-based
Experimental: Evaluation of the agonist activity of compounds at the melanocortin receptors was determined by measuring their effects on cAMP production using the HTRF detection method at CEREP (Eurofins CEREP SA, Celle-Levescault, France). The cells were suspended in HBSS buffer (Invitrogen) complemented with 20 mM HEPES (pH 7.4) and 500 μM IBMX, then distributed in microplates and incubated in the presence of HBSS (basal control), the test compound or the reference agonist. Incubation time, temperature, cell number, reference agonist and cell line information are included in the Table 1 below. For stimulated control measurement, separate assay wells contain reference compound. Following incubation, the cells are lysed and the fluorescence acceptor (D2-labeled cAMP) and fluorescence donor (anti-cAMP antibody labeled with europium cryptate) were added. After 60 minutes at room temperature, the fluorescence transfer was measured at excitation wavelength 337 nm and emission wavelengths 620 and 665 nm using a microplate reader (Envision, Perkin Elmer). The cAMP concentration was determined by dividing the signal measured at 665 nm by that measured at 620 nm (ratio).
The results are expressed as a percent of the control response to 1 μM of the reference. The standard reference agonist is tested in each experiment at several concentrations to generate a concentration-response curve from which its EC50 value is calculated.
Target sequence in this assay (P33032 whole entry): as the sequence (P33032 whole entry, species assumed) above

T5 sequence (P41968 whole entry, species assumed): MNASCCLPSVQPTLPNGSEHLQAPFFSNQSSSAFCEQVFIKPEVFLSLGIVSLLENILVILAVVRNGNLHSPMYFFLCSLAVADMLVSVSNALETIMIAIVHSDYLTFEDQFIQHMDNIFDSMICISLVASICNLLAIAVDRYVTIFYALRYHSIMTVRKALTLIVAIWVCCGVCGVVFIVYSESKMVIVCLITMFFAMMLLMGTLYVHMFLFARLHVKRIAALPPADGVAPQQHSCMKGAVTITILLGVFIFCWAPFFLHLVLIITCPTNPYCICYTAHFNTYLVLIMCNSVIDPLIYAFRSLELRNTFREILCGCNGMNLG
T3 sequence (Q01727 whole entry): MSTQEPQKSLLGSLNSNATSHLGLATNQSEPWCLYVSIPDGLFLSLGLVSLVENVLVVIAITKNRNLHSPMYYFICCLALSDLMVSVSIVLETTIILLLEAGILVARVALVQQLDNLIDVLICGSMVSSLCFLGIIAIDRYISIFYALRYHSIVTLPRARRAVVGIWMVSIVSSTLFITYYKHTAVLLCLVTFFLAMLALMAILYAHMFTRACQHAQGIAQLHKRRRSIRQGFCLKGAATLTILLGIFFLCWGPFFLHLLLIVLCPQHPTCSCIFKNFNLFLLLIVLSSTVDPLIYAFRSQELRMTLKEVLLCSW
T1 sequence (Q01726 whole entry): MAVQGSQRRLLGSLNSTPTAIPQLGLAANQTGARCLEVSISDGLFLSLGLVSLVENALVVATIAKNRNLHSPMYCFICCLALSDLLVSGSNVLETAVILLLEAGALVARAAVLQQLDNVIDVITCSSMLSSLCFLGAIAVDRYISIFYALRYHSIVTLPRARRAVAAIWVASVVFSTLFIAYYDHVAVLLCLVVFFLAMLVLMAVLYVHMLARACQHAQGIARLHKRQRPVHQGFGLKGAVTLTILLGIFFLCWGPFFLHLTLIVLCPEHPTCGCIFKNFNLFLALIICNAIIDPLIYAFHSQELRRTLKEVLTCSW
T2 sequence (P32245 whole entry): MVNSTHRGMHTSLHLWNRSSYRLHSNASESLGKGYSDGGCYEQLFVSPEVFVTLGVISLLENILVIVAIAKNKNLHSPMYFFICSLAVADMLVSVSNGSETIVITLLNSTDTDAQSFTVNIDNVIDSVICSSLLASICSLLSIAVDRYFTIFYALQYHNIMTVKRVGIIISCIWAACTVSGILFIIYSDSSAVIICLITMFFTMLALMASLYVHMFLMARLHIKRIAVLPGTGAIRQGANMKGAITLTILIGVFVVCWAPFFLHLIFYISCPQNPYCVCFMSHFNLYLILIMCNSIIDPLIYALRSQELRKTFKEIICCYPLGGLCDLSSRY

SMILES: CCCC[C@H](NC(C)=O)C(=O)N[C@H]1CCC(=O)NCCCCNC(=O)[C@H](Cc2c[nH]c3ccccc23)NC(=O)[C@H](CCCNC(=N)N)NC(=O)[C@@H](Cc2ccc(F)cc2)NC(=O)[C@H](Cc2c[nH]cn2)NC1=O [Peptide No. 60, Ac-Nle-cyclo(Glu-His-D-Phe(4-F)-Arg-Trp-NH—(CH2)4—NH)] (Ac-[Nle]EH[dPhe(4-F)]RW; linker 2-C via NH(CH2)4NH)
- EC50 (MC1r (HBL); MC1r (HBL)): 0.13 nM
- Fold Peptide No. 60 More Potent Than Bremelanotide (MC1r (HBL); MC1r (HBL)): 0.78X
- Fold Peptide No. 60 More Potent Than α-MSH (MC1r (HBL); MC1r (HBL)): 69X
- potency compared to bremelanotide (in words) (MC1r (HBL); at MC1r): approximately equal potency
- potency compared to α-MSH (in words) (MC1r (HBL); at MC1r): greater relative potency
- EC50 (MC4r; MC4r): 2 nM
- Fold Peptide No. 60 More Potent Than Bremelanotide (MC4r; MC4r): 0.5X
- Fold Peptide No. 60 More Potent Than α-MSH (MC4r; MC4r): 1.5X
- potency compared to α-MSH (in words) (MC4r; at MC4r): roughly comparable
- EC50 (MC1r (B16/F10)): 0.02 nM
- Fold Peptide No. 60 More Potent Than Bremelanotide (MC1r (B16/F10)): 5X
- Fold Peptide No. 60 More Potent Than α-MSH (MC1r (B16/F10)): 11X
- EC50 (MC5r [1]; MC5r): 0.15 nM
- Fold Peptide No. 60 More Potent Than Bremelanotide (MC5r [1]; MC5r): 22,500X
- Fold Peptide No. 60 More Potent Than α-MSH (MC5r [1]; MC5r): 686X
- potency compared to α-MSH (in words) (MC5r [1]; at MC5r): greater relative potency
- ocular, drug-related adverse events ([2]; Phase 2 study): no ocular, drug-related adverse events
- serious adverse events associated with study treatment ([2]; Phase 2 study): no serious adverse events associated with study treatment observed
- patients discontinued from the study ([2]; not deemed to be drug related): one
- presence in ocular tissues [3]: found in both the conjunctiva and lacrimal gland
- EC50 (MC3r; MC3r): 0.77 nM
- Fold Peptide No. 60 More Potent Than Bremelanotide (MC3r; MC3r): 4X
- Fold Peptide No. 60 More Potent Than α-MSH (MC3r; MC3r): 3.9X
- potency compared to α-MSH (in words) (MC3r; at MC3r): roughly comparable
- corneal fluorescein staining compared with untreated eyes (male C57BL/6JRj mice; 10^−2 mg/ml, P<0.05, Dunn's multiple comparisons test): statistically significant lower corneal fluorescein staining
- corneal fluorescein staining compared with untreated eyes (male C57BL/6JRj mice; 10^−3 mg/ml, P<0.01, Dunn's multiple comparisons test): statistically significant lower corneal fluorescein staining
- corneal fluorescein staining compared with untreated eyes (male C57BL/6JRj mice; 10^−4 mg/ml, P<0.01, Dunn's multiple comparisons test): statistically significant lower corneal fluorescein staining
- corneal fluorescein staining/scores, Day 12 compared with Day 24 for the same eye (male C57BL/6JRj mice; doses between 10^−2 and 10^−4 mg/mL, topical): statistically significantly improvement of corneal fluorescein scores
- EC50 (MC5r [4]): 0.39 nM
- Fold Peptide No. 60 More Potent Than Bremelanotide (MC5r [4]): >25,000X (CEREP)
- Fold Peptide No. 60 More Potent Than α-MSH (MC5r [4]): 930X (CEREP)

— patent US12692291B2, “Diamine-linked melanocortin receptor-specific cyclic peptides for ocular indications” (Boehringer Ingelheim International GmbH, priority 2020, dated 2026)
